# Measured values from patent US10413501B2, “Cosmetic composition containing halomonas ferment extract, and use thereof” (LUBRIZOL ADVANCED MATERIALS, INC., priority 2014, dated 2019).
# Test system: Primary Human Subcutaneous Preadipocytes
# Format: cell-based
# Details: 2.5 ug/mL
# Protocol: Quantification of adipogenesis is evaluated with AdipoRed™ Adipogenesis Assay Reagent (Lonza). The increase of the accumulation of lipids is determined by measuring the fluorescence signal of Nile Red in primary human Primary Human Subcutaneous Preadipocytes after treatment with exopolysaccharide produced by the strain of Halomonas eurihalina species with deposit number LMG P-28571 obtained in accordance with example 1 in Adipocyte Differentiation Medium. Cells treated with Adipocyte Differentiation Medium alone are used as a basal control. Human preadipocytes (from a donor) (ZENBIO) are seeded (13,000 cells/well, 5 wells per condition) in 96-clear well plates in Preadipocyte Growth Medium (ZENBIO). The cells are incubated for 24 hours at 37° C. in a water-saturated atmosphere of 95% air and 5% CO2. […] In the basal control, preadipocytes are treated with the Adipocyte Differentiation Medium only. As a negative control, preadipocytes are treated with the Adipocyte Differentiation Medium and caffeine. Quantification of the accumulation of lipids is carried out by AdipoRed™ reagent (LONZA) assay. […] The percentage of normalized lipid accumulation compared with the basal control is calculated.
smiles,measurement,value
"Cn1c(=O)c2c(ncn2C)n(C)c1=O [Caffeine, caffeine]",% Lipid accumulation vs basal control,87.50%
